One molecule from US12097202B2 (Kadmon Corporation, LLC, priority 2022, dated 2024) can be followed below.

Data set [1] can be described thus: Clinical pharmacokinetics in chronic GVHD patients. It is filed as in vivo, human.
Another data set concerns the target human serum albumin (Homo sapiens, UniProt P02768). The data set is described as follows: In vitro protein binding, human serum albumin. In kind it is in vitro ADME.
The next data set addresses CYP3A4 (Homo sapiens, UniProt P08684). The data set is described as follows: In vitro metabolism by CYP3A4. It is filed as in vitro ADME.
The next data set concerns the target CYP2D6 (Homo sapiens, UniProt P10635). The data set is described as follows: In vitro metabolism by CYP2D6. It is filed as in vitro ADME.
Data set [2] can be described thus: Clinical drug interaction studies, effects of other drugs on belumosudil in healthy subjects. It is filed as in vivo, human.
The target in a further data set is P-gp (Homo sapiens, UniProt P08183). Nature of the data set: In vitro transporter study, P-gp. In kind it is in vitro ADME.
The target in the next data set is T1, CYP1A2 (Homo sapiens, UniProt P05177).
T1 sequence (P05177 1-516): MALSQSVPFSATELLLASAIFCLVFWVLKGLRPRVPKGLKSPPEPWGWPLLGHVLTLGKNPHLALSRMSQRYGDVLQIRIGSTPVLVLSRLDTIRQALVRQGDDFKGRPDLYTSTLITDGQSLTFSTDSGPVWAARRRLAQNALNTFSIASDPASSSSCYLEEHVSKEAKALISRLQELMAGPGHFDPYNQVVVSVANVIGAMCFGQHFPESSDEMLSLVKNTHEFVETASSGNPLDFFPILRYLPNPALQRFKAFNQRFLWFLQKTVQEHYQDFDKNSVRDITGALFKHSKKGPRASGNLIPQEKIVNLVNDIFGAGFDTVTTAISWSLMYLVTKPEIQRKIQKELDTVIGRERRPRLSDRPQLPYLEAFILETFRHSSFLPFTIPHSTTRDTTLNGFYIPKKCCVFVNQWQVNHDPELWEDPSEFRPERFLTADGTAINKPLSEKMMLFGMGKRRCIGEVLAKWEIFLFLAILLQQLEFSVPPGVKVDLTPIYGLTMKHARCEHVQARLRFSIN
The data set is described as follows: In vitro enzyme inhibition, CYP1A2. In kind it is in vitro ADME.

Another data set has as its target CYP2C19 (Homo sapiens, UniProt P33261). The data set is described as follows: In vitro enzyme inhibition, CYP2C19. It is filed as in vitro ADME.
In the next data set the target is T2, UGT1A1 (Homo sapiens, UniProt P22309).
T2 sequence (P22309 26-533): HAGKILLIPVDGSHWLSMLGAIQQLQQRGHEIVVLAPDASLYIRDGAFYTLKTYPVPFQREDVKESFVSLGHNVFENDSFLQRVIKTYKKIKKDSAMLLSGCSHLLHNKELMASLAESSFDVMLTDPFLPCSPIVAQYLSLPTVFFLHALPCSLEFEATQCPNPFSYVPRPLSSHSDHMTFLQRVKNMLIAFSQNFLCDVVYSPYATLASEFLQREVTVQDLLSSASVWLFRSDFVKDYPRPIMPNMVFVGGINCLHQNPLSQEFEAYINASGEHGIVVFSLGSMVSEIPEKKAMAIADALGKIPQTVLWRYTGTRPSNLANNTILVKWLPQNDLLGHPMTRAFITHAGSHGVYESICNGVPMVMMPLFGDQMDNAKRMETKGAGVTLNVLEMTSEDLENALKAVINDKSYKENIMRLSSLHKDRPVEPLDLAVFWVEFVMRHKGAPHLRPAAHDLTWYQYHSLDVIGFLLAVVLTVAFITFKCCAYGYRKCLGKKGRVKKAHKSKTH
The data set is described as follows: In vitro enzyme inhibition, UGT1A1. It is filed as in vitro ADME.

The target in the next data set is T3, UGT1A9 (Homo sapiens, UniProt O60656).
T3 sequence (O60656 26-530): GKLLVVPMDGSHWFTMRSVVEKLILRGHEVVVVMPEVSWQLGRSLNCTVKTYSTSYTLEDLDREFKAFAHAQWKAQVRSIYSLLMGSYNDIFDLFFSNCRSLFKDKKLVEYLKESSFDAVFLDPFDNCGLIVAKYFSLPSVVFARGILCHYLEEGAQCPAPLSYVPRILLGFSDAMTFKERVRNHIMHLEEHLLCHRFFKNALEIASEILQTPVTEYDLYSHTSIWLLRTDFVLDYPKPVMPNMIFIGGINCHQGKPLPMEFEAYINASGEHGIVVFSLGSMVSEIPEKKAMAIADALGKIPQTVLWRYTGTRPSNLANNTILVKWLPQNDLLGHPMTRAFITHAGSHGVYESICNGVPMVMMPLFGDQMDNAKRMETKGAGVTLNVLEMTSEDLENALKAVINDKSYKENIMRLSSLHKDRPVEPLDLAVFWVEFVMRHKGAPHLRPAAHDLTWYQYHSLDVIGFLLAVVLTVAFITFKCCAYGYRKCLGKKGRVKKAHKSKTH
Nature of the data set: In vitro enzyme inhibition, UGT1A9. In kind it is in vitro ADME.

The next data set has as its system pregnant rats. The data set is described as follows: Embryo-fetal development studies in rats. It is filed as in vivo, rat. To be noted: oral, organogenesis, pilot study. The procedure: In the pilot study, maternal toxicity and embryo-fetal developmental effects were observed. Maternal toxicity (reduced body weight gain) occurred at 150 and 300 mg/kg/day doses. Increased post-implantation loss occurred at 50 and 300 mg/kg/day.

The test system of the next data set is rats. The data set is described as follows: General toxicology studies in rats. It is filed as in vivo, rat.
For data set [3], the system named is patients with chronic GVHD. The following applies: human, in vivo.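 Note: allogeneic HCT recipients aged ≥12 years with persistent cGVHD after two to five earlier systemic treatment lines, responses judged by site investigators, 12-month analysis.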
From the text: Concomitant treatment with supportive care therapies for chronic GVHD was permitted. […] Initiation of new systemic chronic GVHD therapy while on study was not permitted.
Eligible subjects were allogeneic hematopoietic cell transplant recipients aged ≥12 years with persistent cGVHD manifestations after receiving 2 to 5 prior systemic lines of therapy. Subjects were required to be receiving stable corticosteroid therapy for 2 weeks prior to screening and to have a Karnofsky or Lansky Performance Status Scale score≥60. Certain concurrent immunosuppressive medications were allowed because drug-drug interactions were not anticipated.
Randomization was stratified (1:1) by cGVHD severity and prior exposure to ibrutinib.
All responses were assessed by the study site investigators. Secondary end points included duration of response (DOR), time to response, changes in LSS summary score, failure-free survival (FFS), corticosteroid dose reductions, and overall survival (OS). DOR was measured from the time of initial PR or CR until documented progression from best response of cGVHD, time from initial response to start of additional systemic cGVHD therapy, or death. The 7-day LSS summary score was calculated based on the developer recommendations and was compared with the score from baseline; an improvement ≥7 points was considered clinically meaningful. […] Relative dose intensity (RDI) was used as a surrogate measure of drug tolerability and was defined as actual dose intensity/planned dose intensity, where dose intensity was defined as the cumulative dose over the duration of exposure (mg/d). Actual dose intensity captured the sum of actual doses received over the duration of exposure and incorporated dose reductions and/or interruptions.
The Hochberg procedure was used for multiplicity adjustment for the primary end point of best ORR. […] CI was calculated using the Clopper-Pearson interval (exact) method.
For a further data set, the system named is pregnant rabbits. To be noted: female, rabbit, in vivo, po.

P-gp, sequence (P08183 whole entry): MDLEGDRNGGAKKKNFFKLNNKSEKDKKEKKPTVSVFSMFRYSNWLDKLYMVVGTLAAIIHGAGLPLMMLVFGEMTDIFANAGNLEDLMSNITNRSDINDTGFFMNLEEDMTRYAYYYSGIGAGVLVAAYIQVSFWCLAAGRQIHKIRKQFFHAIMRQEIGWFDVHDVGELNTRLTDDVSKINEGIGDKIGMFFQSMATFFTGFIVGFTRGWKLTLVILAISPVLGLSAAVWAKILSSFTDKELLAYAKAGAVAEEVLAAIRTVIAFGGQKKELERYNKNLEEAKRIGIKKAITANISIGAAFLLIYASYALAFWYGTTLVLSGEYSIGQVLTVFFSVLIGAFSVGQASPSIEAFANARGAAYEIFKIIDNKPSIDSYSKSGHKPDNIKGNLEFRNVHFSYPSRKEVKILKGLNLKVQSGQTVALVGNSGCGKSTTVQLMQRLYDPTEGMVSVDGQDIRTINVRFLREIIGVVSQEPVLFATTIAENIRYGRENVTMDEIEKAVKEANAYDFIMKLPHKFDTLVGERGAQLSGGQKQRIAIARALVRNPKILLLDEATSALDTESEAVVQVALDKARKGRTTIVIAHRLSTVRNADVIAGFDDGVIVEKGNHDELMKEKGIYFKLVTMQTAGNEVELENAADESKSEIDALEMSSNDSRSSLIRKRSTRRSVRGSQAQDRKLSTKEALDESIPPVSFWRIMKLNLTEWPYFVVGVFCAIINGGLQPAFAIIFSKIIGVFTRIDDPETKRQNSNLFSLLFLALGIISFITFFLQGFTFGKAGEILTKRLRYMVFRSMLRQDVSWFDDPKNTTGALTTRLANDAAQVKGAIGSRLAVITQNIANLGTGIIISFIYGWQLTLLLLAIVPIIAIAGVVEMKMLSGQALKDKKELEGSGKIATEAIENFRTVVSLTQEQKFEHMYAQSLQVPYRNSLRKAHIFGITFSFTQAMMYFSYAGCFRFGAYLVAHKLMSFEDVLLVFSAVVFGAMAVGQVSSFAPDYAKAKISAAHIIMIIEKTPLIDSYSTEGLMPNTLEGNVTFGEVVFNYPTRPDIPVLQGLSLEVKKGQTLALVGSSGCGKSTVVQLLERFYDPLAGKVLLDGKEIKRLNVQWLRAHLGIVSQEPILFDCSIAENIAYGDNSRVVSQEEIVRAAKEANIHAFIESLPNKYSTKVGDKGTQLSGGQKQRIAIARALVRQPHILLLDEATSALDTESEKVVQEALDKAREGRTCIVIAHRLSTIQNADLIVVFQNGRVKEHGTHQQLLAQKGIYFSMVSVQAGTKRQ
CYP2D6, sequence (P10635 whole entry): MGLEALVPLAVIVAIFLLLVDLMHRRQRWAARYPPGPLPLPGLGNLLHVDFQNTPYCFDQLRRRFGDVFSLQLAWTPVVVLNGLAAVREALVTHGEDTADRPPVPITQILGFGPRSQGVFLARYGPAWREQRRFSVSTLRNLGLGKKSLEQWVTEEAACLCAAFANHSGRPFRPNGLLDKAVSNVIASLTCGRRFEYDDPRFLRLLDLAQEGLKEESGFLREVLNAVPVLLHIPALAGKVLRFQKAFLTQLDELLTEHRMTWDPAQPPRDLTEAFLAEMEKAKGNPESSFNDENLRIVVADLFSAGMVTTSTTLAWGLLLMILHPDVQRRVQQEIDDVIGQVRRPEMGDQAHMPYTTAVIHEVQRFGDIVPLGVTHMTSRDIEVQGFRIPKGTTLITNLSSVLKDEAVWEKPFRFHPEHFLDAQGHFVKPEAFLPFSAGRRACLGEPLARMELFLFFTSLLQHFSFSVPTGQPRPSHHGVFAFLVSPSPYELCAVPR
CYP2C19, sequence (P33261 whole entry): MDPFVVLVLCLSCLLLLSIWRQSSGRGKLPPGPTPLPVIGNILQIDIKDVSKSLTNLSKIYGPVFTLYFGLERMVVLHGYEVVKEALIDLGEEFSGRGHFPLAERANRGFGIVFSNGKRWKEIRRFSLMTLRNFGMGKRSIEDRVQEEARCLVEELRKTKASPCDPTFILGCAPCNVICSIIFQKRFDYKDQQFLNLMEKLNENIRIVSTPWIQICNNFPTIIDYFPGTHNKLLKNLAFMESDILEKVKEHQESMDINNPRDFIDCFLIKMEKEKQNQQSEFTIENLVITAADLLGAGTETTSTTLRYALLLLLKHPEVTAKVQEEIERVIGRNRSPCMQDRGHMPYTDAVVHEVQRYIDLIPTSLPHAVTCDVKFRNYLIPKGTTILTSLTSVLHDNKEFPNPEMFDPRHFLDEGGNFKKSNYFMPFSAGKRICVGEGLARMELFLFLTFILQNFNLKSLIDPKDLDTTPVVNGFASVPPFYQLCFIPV
human serum albumin, sequence (P02768 25-609): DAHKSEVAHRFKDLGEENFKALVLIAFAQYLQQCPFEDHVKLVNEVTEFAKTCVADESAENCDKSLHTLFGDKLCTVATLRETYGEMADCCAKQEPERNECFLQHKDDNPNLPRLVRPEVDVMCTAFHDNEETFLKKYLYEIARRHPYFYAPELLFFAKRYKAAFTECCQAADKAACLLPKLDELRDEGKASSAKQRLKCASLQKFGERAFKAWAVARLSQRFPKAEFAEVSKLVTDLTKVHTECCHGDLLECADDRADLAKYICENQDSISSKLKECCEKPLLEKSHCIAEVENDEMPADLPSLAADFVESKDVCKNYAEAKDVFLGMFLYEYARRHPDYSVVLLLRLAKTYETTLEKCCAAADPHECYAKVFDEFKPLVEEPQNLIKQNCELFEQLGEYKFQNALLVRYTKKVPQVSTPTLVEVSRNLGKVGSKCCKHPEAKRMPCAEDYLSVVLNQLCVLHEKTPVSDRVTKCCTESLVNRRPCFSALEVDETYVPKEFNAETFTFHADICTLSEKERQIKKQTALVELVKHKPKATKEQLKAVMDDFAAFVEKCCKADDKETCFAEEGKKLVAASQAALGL
CYP3A4, sequence (P08684 whole entry): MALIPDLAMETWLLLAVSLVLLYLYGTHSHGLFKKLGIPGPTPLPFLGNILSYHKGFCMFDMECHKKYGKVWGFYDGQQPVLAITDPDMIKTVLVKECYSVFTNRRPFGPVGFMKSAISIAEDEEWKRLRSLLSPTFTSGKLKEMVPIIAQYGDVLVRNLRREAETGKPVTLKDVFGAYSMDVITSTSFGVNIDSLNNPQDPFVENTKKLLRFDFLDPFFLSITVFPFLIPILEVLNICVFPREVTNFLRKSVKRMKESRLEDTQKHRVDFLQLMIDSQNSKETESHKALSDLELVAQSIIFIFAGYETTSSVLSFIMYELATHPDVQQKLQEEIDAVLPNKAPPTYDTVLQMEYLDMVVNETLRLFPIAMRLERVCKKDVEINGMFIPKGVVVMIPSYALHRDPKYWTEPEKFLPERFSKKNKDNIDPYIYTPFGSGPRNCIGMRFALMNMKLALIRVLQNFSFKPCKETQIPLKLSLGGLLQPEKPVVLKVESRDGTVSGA

With `CC(C)NC(=O)COc1cccc(-c2nc(Nc3ccc4[nH]ncc4c3)c3ccccc3n2)c1` [belumosudil, 2-{3-[4-(1H-indazol-5-ylamino)-2-quinazolinyl]phenoxy}-N-(propan-2-yl) acetamide], the “increase of Cmax and AUC with dose” value in [1] (dosage range of 200 and 400 mg) is reported as “approximately proportional”. The “effect of age (18 to 77 years), sex, weight (38.6 to 143 kg), mild to moderate renal impairment on pharmacokinetics” value in [1] (human, in vivo) is recorded as “No clinically significant differences”. Also, the “binding to human serum albumin” value at human serum albumin worked out at 99.9%. Further, the “metabolism by CYP3A4” value on CYP3A4 is “primarily metabolized”. Further, at CYP2D6, the “metabolism by CYP2D6” value is “to a lesser extent”. In data set [2], the “decrease of belumosudil AUC with omeprazole” value was 47%, the “decrease of belumosudil AUC with rabeprazole” value is 80%, the “decrease of belumosudil AUC with rifampin” value is given as 72% and the “decrease of belumosudil Cmax with omeprazole” value stood at 68%. Moreover, in data set [2], the “decrease of belumosudil Cmax with rabeprazole” value came to 87%, the “decrease of belumosudil Cmax with rifampin” value is recorded as 59% and the “effect of itraconazole (strong CYP3A inhibitor) on belumosudil exposure” value is “no clinically meaningful effect”. Besides, the P-gp substrate status result at P-gp is reported as “substrate of P-gp”. The “inhibition of P-gp” value on P-gp (at clinically relevant concentrations) is recorded as “inhibits”. Further, the “inhibition of CYP1A2” value against CYP1A2 is “inhibitor”. Also, on CYP2C19, the “inhibition of CYP2C19” value is “inhibitor”. The “inhibition of UGT1A1” value on UGT1A1 was “inhibitor”. The “inhibition of UGT1A9” value against UGT1A9 is “inhibitor”. Also, in the data set on pregnant rats, the “doses at which fetal malformations were observed” value is no less than 50 mg/kg/day. Besides, the “dose with decreased follicular development in ovaries” value with rats is given as 275 mg/kg/day. For the same molecule, the “Upper respiratory tract infection” value in data set [3] is “(27) %”. Besides, in the data set on pregnant rabbits, the “doses at which embryo-fetal effects were observed” value is on record as no less than 50 mg/kg/day; the “doses at which maternal toxicity (body weight loss and mortality) was observed” value is on record as no less than 125 mg/kg/day.
